Laboratory results published in PubChem BioAssay (NCI).
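How tested: cells in 96-well plates exposed to compound for 48 hours at five concentrations. Definition used: TGI = concentration required for complete inhibition of growth.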

Key:
Assay in all cases: DTP human tumour cell line panel, 48 h
KM12 colon = system: KM12 colon
HCT-116 colon = system: HCT-116 colon
NCI/ADR-RES ovarian = system: NCI/ADR-RES ovarian
U251 CNS = system: U251 CNS
BT-549 breast = system: BT-549 breast
SNB-75 CNS = system: SNB-75 CNS
TK-10 renal = system: TK-10 renal
HS 578T breast = system: HS 578T breast
SK-OV-3 ovarian = system: SK-OV-3 ovarian
SN12C renal = system: SN12C renal
T-47D breast = system: T-47D breast
A549 NSCLC = system: A549 NSCLC
HOP-92 NSCLC = system: HOP-92 NSCLC
MCF7 breast = system: MCF7 breast
RPMI-8226 leukemia = system: RPMI-8226 leukemia
OVCAR-4 ovarian = system: OVCAR-4 ovarian
SNB-19 CNS = system: SNB-19 CNS
RXF 393 renal = system: RXF 393 renal
NCI-H23 lung = system: NCI-H23 lung
MDA-N = system: MDA-N
SK-MEL-28 melanoma = system: SK-MEL-28 melanoma
M14 melanoma = system: M14 melanoma
OVCAR-5 ovarian = system: OVCAR-5 ovarian
NCI-H226 lung = system: NCI-H226 lung
DU-145 prostate = system: DU-145 prostate
OVCAR-8 ovarian = system: OVCAR-8 ovarian
A498 renal = system: A498 renal
EKVX NSCLC = system: EKVX NSCLC
MDA-MB-435 = system: MDA-MB-435
SW-620 colon = system: SW-620 colon
UACC-62 melanoma = system: UACC-62 melanoma
IGROV1 ovarian = system: IGROV1 ovarian
OVCAR-3 ovarian = system: OVCAR-3 ovarian
NCI-H460 lung = system: NCI-H460 lung
UACC-257 melanoma = system: UACC-257 melanoma
SF-295 CNS = system: SF-295 CNS
HOP-62 NSCLC = system: HOP-62 NSCLC
HCT-15 colon = system: HCT-15 colon
HL-60(TB) leukemia = system: HL-60(TB) leukemia
SF-268 CNS = system: SF-268 CNS
MDA-MB-231 breast = system: MDA-MB-231 breast
ACHN renal = system: ACHN renal
786-0 renal = system: 786-0 renal
COLO 205 colon = system: COLO 205 colon
SK-MEL-5 melanoma = system: SK-MEL-5 melanoma
HT29 colon = system: HT29 colon
MOLT-4 leukemia = system: MOLT-4 leukemia
SK-MEL-2 melanoma = system: SK-MEL-2 melanoma
SF-539 CNS = system: SF-539 CNS
HCC-2998 colon = system: HCC-2998 colon
UO-31 renal = system: UO-31 renal
K-562 leukemia = system: K-562 leukemia

Measured: TGI

O=C1CSC(c2c[nH]c3ccccc23)N1c1ccc(Cl)cc1 (configuration not stated)
> 100 µM: all assays above
